The values that follow come from PubChem BioAssay AID1918993 (Molecular Pharmacology Branch, DTP, NCI, 2023).

The subject of this assay is 233499-124-R-J3-PDC complex spheroid growth. Kind of assay: Anticancer human tumor 233499-124-R-J3-PDC patient-derived colon adenocarcinoma cell line growth inhibition [AhR]. As to conditions: for viability, T/C: stronger effect = lower value. The method in brief: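 Agents were dosed in half-log steps down from roughly clinical Cmax, or from 10 microM where Cmax was unknown, alone and with AhR antagonists. Read-out: percent test/control growth of tumor spheroids containing HUVEC and MSC stromal cells.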

Where [1] appears, read: curve of first compound, second compound 0.1 µM.
Where [2] appears, read: curve of first compound, second compound 0.316 µM.
The mark [3] stands for this setting: curve of first compound, second compound 1 µM.
The mark [4] stands for this setting: curve of first compound, second compound 3.16 µM.
Where [5] appears, read: curve of first compound, second compound 10 µM.
The mark [6] stands for this setting: second compound 0.1 µM, first compound 0.0316 µM.
Setting [7] is: second compound 0.1 µM, first compound 0.1 µM.
Setting [8] is: second compound 0.1 µM, first compound 0.316 µM.
[9] abbreviates: second compound 0.1 µM, first compound 1 µM.
Setting [10] is: second compound 0.1 µM, first compound 3.16 µM.
Where [11] appears, read: second compound 0.1 µM, first compound 10 µM.
[12] abbreviates: second compound 0.316 µM, first compound 0.0316 µM.
[13] abbreviates: second compound 0.316 µM, first compound 0.1 µM.
[14] abbreviates: second compound 0.316 µM, first compound 0.316 µM.
The mark [15] stands for this setting: second compound 0.316 µM, first compound 1 µM.
Where [16] appears, read: second compound 0.316 µM, first compound 3.16 µM.
[17] abbreviates: second compound 0.316 µM, first compound 10 µM.
Where [18] appears, read: second compound 1 µM, first compound 0.0316 µM.
[19] abbreviates: second compound 1 µM, first compound 0.1 µM.
The mark [20] stands for this setting: second compound 1 µM, first compound 0.316 µM.
Setting [21] is: second compound 1 µM, first compound 1 µM.
The mark [22] stands for this setting: second compound 1 µM, first compound 3.16 µM.
The mark [23] stands for this setting: second compound 1 µM, first compound 10 µM.
Setting [24] is: second compound 3.16 µM, first compound 0.0316 µM.
Setting [25] is: second compound 3.16 µM, first compound 0.1 µM.
Where [26] appears, read: second compound 3.16 µM, first compound 0.316 µM.
Setting [27] is: second compound 3.16 µM, first compound 1 µM.
Where [28] appears, read: second compound 3.16 µM, first compound 3.16 µM.
Where [29] appears, read: second compound 3.16 µM, first compound 10 µM.
Where [30] appears, read: second compound 10 µM, first compound 0.0316 µM.
The mark [31] stands for this setting: second compound 10 µM, first compound 0.1 µM.
The mark [32] stands for this setting: second compound 10 µM, first compound 0.316 µM.
Where [33] appears, read: second compound 10 µM, first compound 1 µM.
Where [34] appears, read: second compound 10 µM, first compound 3.16 µM.
Where [35] appears, read: second compound 10 µM, first compound 10 µM.

Values joined by “and” are separate entries in the source; they are usually repeats but may differ in a detail not shown here. Equal entries are not always repeated.
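Note: spheroids exposed to agents for seven days before reading.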

On to `Nc1ncn(C2CC(O)C(CO)S2)c(=O)n1` (centres undefined) + CC(CO)NC(=O)c1cc(-c2ccc(Cl)cc2)nn(-c2cnn(C)c2)c1=O, for which the IC50 is over 0.3 µM under setting [1]; over 0.3 µM under setting [2]; over 0.3 µM under setting [3]; over 0.3 µM under setting [4]; over 0.3 µM under setting [5]. In addition, the viability, T/C runs as follows: (second compound 0.1 µM, first compound 0.000949 µM) 106%; (second compound 0.1 µM, first compound 0.003 µM) 109%; (second compound 0.1 µM, first compound 0.00949 µM) 92.5%; (second compound 0.1 µM, first compound 0.03 µM) 109%; (second compound 0.1 µM, first compound 0.0949 µM) 104%; (second compound 0.1 µM, first compound 0.3 µM) 86.3%. Further, the viability, T/C is, setting by setting: (second compound 0.316 µM, first compound 0.000949 µM) 99.5%; (second compound 0.316 µM, first compound 0.003 µM) 95.5%; (second compound 0.316 µM, first compound 0.00949 µM) 105%; (second compound 0.316 µM, first compound 0.03 µM) 97%; (second compound 0.316 µM, first compound 0.0949 µM) 104%; (second compound 0.316 µM, first compound 0.3 µM) 95%. The viability, T/C is 98.2% (second compound 1 µM, first compound 0.000949 µM); 105% (second compound 1 µM, first compound 0.003 µM); 113% (second compound 1 µM, first compound 0.00949 µM); 100% (second compound 1 µM, first compound 0.03 µM); 106% (second compound 1 µM, first compound 0.0949 µM); 96.9% (second compound 1 µM, first compound 0.3 µM). Also, the viability, T/C (second compound 3.16 µM, first compound 0.000949 µM) was 103%; the viability, T/C (second compound 3.16 µM, first compound 0.003 µM) is 100%; the viability, T/C (second compound 3.16 µM, first compound 0.00949 µM) is 103%; the viability, T/C (second compound 3.16 µM, first compound 0.03 µM) is 112%; the viability, T/C (second compound 3.16 µM, first compound 0.0949 µM) was 89.5%; the viability, T/C (second compound 3.16 µM, first compound 0.3 µM) is 90.5%. The viability, T/C by setting is: (second compound 10 µM, first compound 0.000949 µM) 86.8%; (second compound 10 µM, first compound 0.003 µM) 84.1%; (second compound 10 µM, first compound 0.00949 µM) 101%; (second compound 10 µM, first compound 0.03 µM) 100%; (second compound 10 µM, first compound 0.0949 µM) 102%; (second compound 10 µM, first compound 0.3 µM) 87.6%.
Consider `O=C(C=Cc1cccc(S(=O)(=O)Nc2ccccc2)c1)NO` + Cc1ccccc1N=Nc1ccc(NC(=O)c2ccnn2C)c(C)c1, for which the IC50 under setting [1] was 6.62 µM; the IC50 under setting [2] worked out at 5.96 µM; the IC50 under setting [3] turned out to be 6.36 µM; the IC50 under setting [4] came out at 5.56 µM; the IC50 under setting [5] came to 4.22 µM. Further, the viability, T/C was 98.3% under setting [6]; 97.5% under setting [7]; 110% under setting [8]; 139% under setting [9]; 127% under setting [10]; 14% under setting [11]. Moreover, the viability, T/C was 95.2% under setting [12]; 103% under setting [13]; 127% under setting [14]; 126% under setting [15]; 104% under setting [16]; 5.9% under setting [17]. Moreover, the viability, T/C is, setting by setting: under setting [18], 110%; under setting [19], 102%; under setting [20], 116%; under setting [21], 126%; under setting [22], 111%; under setting [23], 10.7%. Also, the viability, T/C runs as follows: under setting [24], 102%; under setting [25], 102%; under setting [26], 105%; under setting [27], 129%; under setting [28], 89.6%; under setting [29], 9.1%. Also, the viability, T/C under setting [30] is 94.4%; the viability, T/C under setting [31] is 101%; the viability, T/C under setting [32] is 98.5%; the viability, T/C under setting [33] is 94.1%; the viability, T/C under setting [34] is 65.4%; the viability, T/C under setting [35] was 3.82%.
`CCc1c2c(nc3ccc(O)cc13)-c1cc3c(c(=O)n1C2)COC(=O)[C@]3(O)CC`: the viability, T/C by setting is: (compound 0.000949 µM) 117% and 96.2% and 99.4%; (compound 0.003 µM) 93.8% and 87.6% and 85.8%; (compound 0.00949 µM) 89.5% and 85.3% and 77.4%; (compound 0.03 µM) 69.6% and 75.1% and 56.9%; (compound 0.0949 µM) 84.1% and 84% and 77.8%; (compound 0.3 µM) 98.5% and 95.3% and 73.3%. Also, where the note is “curve of compound”, the IC50 is over 0.3 µM.
Regarding `COc1cccc2c1C(=O)c1c(O)c3c(c(O)c1C2=O)CC(O)(C(=O)CO)CC3OC1CC(N)C(O)C(C)O1` (centres undefined) + Cc1ccccc1N=Nc1ccc(NC(=O)c2ccnn2C)c(C)c1, the IC50 was over 10 µM under setting [1]; 8.8 µM under setting [2]; over 10 µM under setting [3]; over 10 µM under setting [4]; over 10 µM under setting [5]. Further, the viability, T/C under setting [6] was 87%; the viability, T/C under setting [7] was 92.3%; the viability, T/C under setting [8] was 102%; the viability, T/C under setting [9] is 91.7%; the viability, T/C under setting [10] is 83.3%; the viability, T/C under setting [11] is 60.2%. For the same compound, the viability, T/C reads like this: under setting [12], 80.4%; under setting [13], 92.6%; under setting [14], 95.9%; under setting [15], 85.3%; under setting [16], 72.2%; under setting [17], 47.2%. Besides, the viability, T/C runs as follows: under setting [18], 97.2%; under setting [19], 99%; under setting [20], 102%; under setting [21], 86.3%; under setting [22], 81.6%; under setting [23], 71.9%. Moreover, the viability, T/C runs as follows: under setting [24], 88.3%; under setting [25], 92.1%; under setting [26], 97.7%; under setting [27], 107%; under setting [28], 86.8%; under setting [29], 78%. In addition, the viability, T/C was 95.2% under setting [30]; 95.1% under setting [31]; 94.4% under setting [32]; 98.7% under setting [33]; 96% under setting [34]; 78.7% under setting [35].
In the case of `CC(C)c1c(-c2ccccc2)nc2c(C#N)c[nH]n2c1=O`, the viability, T/C runs as follows: (compound 0.0316 µM) 101% and 108% and 114%; (compound 0.1 µM) 105% (2×) and 103%; (compound 0.316 µM) 107% and 96% and 113%; (compound 1 µM) 94% and 102% and 93.5%; (compound 3.16 µM) 98.7% and 110% and 117%; (compound 10 µM) 117% and 124% and 105%. Where the note is “curve of compound”, the IC50 was over 10 µM.
